pIC50: −log10 of the molar value.
Target: T1, BCR-NTRK2 BaF3 cells (Homo sapiens, UniProt Q16620)
T1 construct: fused on or other part: P11274 (Breakpoint cluster region protein)
Experiment: BaF3 BCR-NTRK2 cell proliferation assay (ATPlite)
Format: cell-based
Settings: read-out: Inhibition of Cell Proliferation IC50, BCR/BaF3 TrkB
How it was run: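 Proliferation was run for 3 days at 37 °C against 8-point 1:3 titrations with 10 μM as the top final concentration. Seeding was 10,000 cells/well for BaF3 BCR-fusion lines, grown without IL-3, and 25,000 cells/well for MV-4-11. IC50 was derived from ATPlite luminescence read as cell number.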

T1 sequence (Q16620 538-807): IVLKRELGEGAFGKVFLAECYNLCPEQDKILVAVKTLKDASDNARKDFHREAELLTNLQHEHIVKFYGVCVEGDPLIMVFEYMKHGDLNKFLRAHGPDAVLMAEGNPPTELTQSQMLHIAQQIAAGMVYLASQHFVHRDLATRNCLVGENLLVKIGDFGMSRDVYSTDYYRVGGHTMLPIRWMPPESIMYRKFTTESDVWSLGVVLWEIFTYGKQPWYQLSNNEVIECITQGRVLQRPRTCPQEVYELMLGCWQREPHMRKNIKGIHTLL

Row | pIC50 | SMILES
1 | < 5.00 | COc1ccccc1Nc1ncc(Cc2c[nH]c3ncc(Cl)cc23)cn1 [Compound P-3016, [5-(5-Chloro-1H-pyrrolo[2,3-b]pyridin-3-ylmethyl)-pyrimidin-2-yl]-(2-methoxy-phenyl)-amine]
2 | > 6.00 | COc1ccc(Nc2ncc(Cc3c[nH]c4ncc(C)cc34)cn2)cc1F [Compound P-3023, (3-Fluoro-4-methoxy-phenyl)-[5-(5-methyl-1H-pyrrolo[2,3-b]pyridin-3-ylmethyl)-pyrimidin-2-yl]-amine]
3 | > 7.00 | CCOc1ccc(Nc2ncc(Cc3c[nH]c4ncc(C)cc34)cn2)cc1 [Compound P-3026, (4-Ethoxy-phenyl)-[5-(5-methyl-1H-pyrrolo[2,3-b]pyridin-3-ylmethyl)-pyrimidin-2-yl]-amine]
4 | > 6.00 | CCOc1ccc(Nc2ncc(Cc3c[nH]c4ncc(C)cc34)cn2)cn1 [Compound P-3027, (6-Ethoxy-pyridin-3-yl)-[5-(5-methyl-1H-pyrrolo[2,3-b]pyridin-3-ylmethyl)-pyrimidin-2-yl]-amine]
5 | > 6.00 | Cc1cnc2[nH]cc(Cc3cnc(Nc4cc(-c5ccc(F)cc5)n[nH]4)nc3)c2c1 [Compound P-3028, [5-(4-Fluoro-phenyl)-2H-pyrazol-3-yl]-[5-(5-methyl-1H-pyrrolo[2,3-b]pyridin-3-ylmethyl)-pyrimidin-2-yl]-amine]
6 | > 8.00 | Cc1cnc2[nH]cc(Cc3cnc(Nc4ccc(C(C)(C)C)cc4)nc3)c2c1 [Compound P-3030, (4-tert-Butyl-phenyl)-[5-(5-methyl-1H-pyrrolo[2,3-b]pyridin-3-ylmethyl)-pyrimidin-2-yl]-amine amine]
7 | < 6.00 | Cc1cnc2[nH]cc(Cc3cnc(Nc4cc(C5CC5)n[nH]4)nc3)c2c1 [Compound P-3032, (5-Cyclopropyl-2H-pyrazol-3-yl)-[5-(5-methyl-1H-pyrrolo[2,3-b]pyridin-3-ylmethyl)-pyrimidin-2-yl]-amine]
8 | > 7.00 | CSc1ccc(Nc2ncc(Cc3c[nH]c4ncc(C)cc34)cn2)cc1 [Compound P-3033, [5-(5-Methyl-1H-pyrrolo[2,3-b]pyridin-3-ylmethyl)-pyrimidin-2-yl]-(4-methylsulfanyl-phenyl)-amine]
9 | > 6.00 | CCn1ccc(Nc2ncc(Cc3c[nH]c4ncc(C)cc34)cn2)n1 [Compound P-3035, (1-Ethyl-1H-pyrazol-3-yl)-[5-(5-methyl-1H-pyrrolo[2,3-b]pyridin-3-ylmethyl)-pyrimidin-2-yl]-amine]
10 | < 6.00 | Cc1cnc2[nH]cc(Cc3cnc(Nc4cc(OC(C)C)n[nH]4)nc3)c2c1 [Compound P-3038, (5-Isopropoxy-2H-pyrazol-3-yl)-[5-(5-methyl-1H-pyrrolo[2,3-b]pyridin-3-ylmethyl)-pyrimidin-2-yl]-amine]
11 | > 7.00 | Cc1ccc(Nc2ccc(Cc3c[nH]c4ncc(Cl)cc34)c(F)n2)cn1 [Compound P-3042, [5-(5-Chloro-1H-pyrrolo[2,3-b]pyridin-3-ylmethyl)-6-fluoro-pyridin-2-yl]-(6-methyl-pyridin-3-yl)-amine]
12 | > 8.00 | CCOc1ccc(Nc2ccc(C(=O)c3c[nH]c4ncnc(C5CC5)c34)c(F)n2)cn1 [Compound P-4027, (4-Cyclopropyl-7H-pyrrolo[2,3-d]pyrimidin-5-yl)-[6-(6-ethoxy-pyridin-3-ylamino)-2-fluoro-pyridin-3-yl]-methanone]

The remaining lines, values behind:

Row | SMILES | pIC50
13 | Clc1cnc2[nH]cc(Cc3cnc(NC4CC4)nc3)c2c1 [Compound P-3005, [5-(5-Chloro-1H-pyrrolo[2,3-b]pyridin-3-ylmethyl)-pyrimidin-2-yl]-cyclopropyl-amine] | < 5.00
14 | Fc1cccc(Nc2ncc(Cc3c[nH]c4ncc(Cl)cc34)cn2)c1 [Compound P-3017, [5-(5-Chloro-1H-pyrrolo[2,3-b]pyridin-3-ylmethyl)-pyrimidin-2-yl]-(3-fluoro-phenyl)-amine] | < 5.00
15 | COc1ccc(Nc2ncc(Cc3c[nH]c4ncc(C)cc34)cn2)cn1 [Compound P-3020, (6-Methoxy-pyridin-3-yl)-[5-(5-methyl-1H-pyrrolo[2,3-b]pyridin-3-ylmethyl)-pyrimidin-2-yl]-amine] | > 7.00
16 | COc1ccc(Nc2ncc(Cc3c[nH]c4ncc(C)cc34)cn2)cc1 [Compound P-3021, (4-Methoxy-phenyl)-[5-(5-methyl-1H-pyrrolo[2,3-b]pyridin-3-ylmethyl)-pyrimidin-2-yl]-amine] | > 7.00
17 | COc1cc(Nc2ncc(Cc3c[nH]c4ncc(C)cc34)cn2)ccc1F [Compound P-3022, (4-Fluoro-3-methoxy-phenyl)-[5-(5-methyl-1H-pyrrolo[2,3-b]pyridin-3-ylmethyl)-pyrimidin-2-yl]-amine] | > 6.00
18 | CCCOc1ccc(Nc2ncc(Cc3c[nH]c4ncc(C)cc34)cn2)cc1 [Compound P-3024, [5-(5-Methyl-1H-pyrrolo[2,3-b]pyridin-3-ylmethyl)-pyrimidin-2-yl]-(4-propoxy-phenyl)-amine] | > 6.00
19 | CCc1ccc(Nc2ncc(Cc3c[nH]c4ncc(C)cc34)cn2)cc1 [Compound P-3025, (4-Ethyl-phenyl)-[5-(5-methyl-1H-pyrrolo[2,3-b]pyridin-3-ylmethyl)-pyrimidin-2-yl]-amine] | > 8.00
20 | Cc1cnc2[nH]cc(Cc3cnc(Nc4cc(C(C)(C)C)n[nH]4)nc3)c2c1 [Compound P-3029, (5-tert-Butyl-2H-pyrazol-3-yl)-[5-(5-methyl-1H-pyrrolo[2,3-b]pyridin-3-ylmethyl)-pyrimidin-2-yl]-amine] | < 6.00
21 | Cc1cnc2[nH]cc(Cc3cnc(Nc4ccc(C(O)(C(F)(F)F)C(F)(F)F)cc4)nc3)c2c1 [Compound P-3031, 1,1,1,3,3,3-Hexafluoro-2-{4-[5-(5-methyl-1H-pyrrolo[2,3-b]pyridin-3-ylmethyl)-pyrimidin-2-ylamino]-phenyl}-propan-2-ol] | > 8.00
22 | Cc1cnc2[nH]cc(Cc3cnc(Nc4ccc(S(C)(=O)=O)cc4)nc3)c2c1 [Compound P-3034, (4-Methanesulfonyl-phenyl)-[5-(5-methyl-1H-pyrrolo[2,3-b]pyridin-3-ylmethyl)-pyrimidin-2-yl]-amine] | > 6.00
23 | CCn1cc(Nc2ncc(Cc3c[nH]c4ncc(C)cc34)cn2)cn1 [Compound P-3036, (1-Ethyl-1H-pyrazol-4-yl)-[5-(5-methyl-1H-pyrrolo[2,3-b]pyridin-3-ylmethyl)-pyrimidin-2-yl]-amine] | > 6.00
24 | Cc1cnc2[nH]cc(Cc3cnc(Nc4cc(C(F)(F)F)n[nH]4)nc3)c2c1 [Compound P-3037, [5-(5-Methyl-1H-pyrrolo[2,3-b]pyridin-3-ylmethyl)-pyrimidin-2-yl]-(5-trifluoromethyl-2H-pyrazol-3-yl)-amine] | < 5.00
25 | CCOc1ccc(Nc2ccc(C(=O)c3c[nH]c4ncc(C)cc34)c(F)n2)cn1 [Compound P-3045, [6-(6-ethoxy-pyridin-3-ylamino)-2-fluoro-pyridin-3-yl]-(5-methyl-1H-pyrrolo[2,3-b]pyridin-3-yl)-methanone] | > 8.00
26 | CCOc1ncnc2[nH]cc(Cc3ccc(Nc4ccc(Br)nc4)nc3F)c12 [Compound P-4020, (6-Bromo-pyridin-3-yl)-[5-(4-ethoxy-7H-pyrrolo[2,3-d]pyrimidin-5-ylmethyl)-6-fluoro-pyridin-2-yl]-amine] | > 7.00
27 | CCOc1ncnc2[nH]cc(Cc3ccc(Nc4cccnc4)nc3F)c12 [Compound P-4021, [5-(4-Ethoxy-7H-pyrrolo[2,3-d]pyrimidin-5-ylmethyl)-6-fluoro-pyridin-2-yl]-pyridin-3-yl-amine] | > 6.00
28 | CCOc1ccc(Nc2ccc(Cc3c[nH]c4ncnc(C5CC5)c34)c(F)n2)cn1 [Compound P-4026, [5-(4-Cyclopropyl-7H-pyrrolo[2,3-d]pyrimidin-5-ylmethyl)-6-fluoro-pyridin-2-yl]-(6-ethoxy-pyridin-3-yl)-amine] | > 8.00
29 | CCOc1ccc(Nc2ccc(C(=O)c3c[nH]c4ncnc(C)c34)c(F)n2)cn1 [Compound P-4032, [6-(6-Ethoxy-pyridin-3-ylamino)-2-fluoro-pyridin-3-yl]-(4-methyl-7H-pyrrolo[2,3-d]pyrimidin-5-yl)-methanone] | > 7.00
30 | Cc1cncc(Nc2ccc(Cc3c[nH]c4ncnc(C5CC5)c34)c(F)n2)c1 [Compound P-4038, [5-(4-Cyclopropyl-7H-pyrrolo[2,3-d]pyrimidin-5-ylmethyl)-6-fluoro-pyridin-2-yl]-(5-methyl-pyridin-3-yl)-amine] | > 6.00
31 | Cc1cncc(Nc2ccc(C(=O)c3c[nH]c4ncnc(C5CC5)c34)c(F)n2)c1 [Compound P-4039, (4-Cyclopropyl-7H-pyrrolo[2,3-d]pyrimidin-5-yl)-[2-fluoro-6-(5-methyl-pyridin-3-ylamino)-pyridin-3-yl]-methanone] | > 7.00

From US8901118B2, “Compounds and methods for kinase modulation, and indications therefor” (Plexxikon Inc., priority 2010, dated 2014)
